Experimental data reported in article PMC12259270, “Sensory neuron–expressed FGF13 controls nociceptive signaling in diabetic neuropathy models” (The Journal of Clinical Investigation, 2025).
Residues, ends and D or L forms follow the SMILES beside them. *: point of attachment. Cbz = O=C(OCc1ccccc1)*; NHPh = c1ccc(N*)cc1; OtBu = CC(C)(C)O*

What was measured:
[1] = target: T1, FGF13 (Homo sapiens, UniProt Q92913); experiment: Surface plasmon resonance (SPR), compound binding to FGF13; conditions: for Kd: SPR
T1 construct: Full-length FGF13-1b (aa 1-192) was subcloned into appropriate plasmids; made in house; host or cells: E. coli BL21 (DE3) pLys
T1 sequence (Q92913 1-192 isoform Q92913-2): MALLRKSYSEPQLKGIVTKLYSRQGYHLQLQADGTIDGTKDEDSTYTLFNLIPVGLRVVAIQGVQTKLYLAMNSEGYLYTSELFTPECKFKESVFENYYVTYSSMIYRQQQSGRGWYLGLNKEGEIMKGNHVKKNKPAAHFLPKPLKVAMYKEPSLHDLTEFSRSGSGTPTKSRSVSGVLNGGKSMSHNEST
Experimental: page 6: Split-luciferase Complementation Assay (LCA) Twenty-four hours post transfection, cells were trypsinized using TrypLE (Gibco; cat # 12604013), centrifuged […] plates (Greiner Bio -One; cat # 655073 ) at ~0.8 x 10^5 cells per well in 200 μl of medium. The cells were incubated for another 24 hours, and then the growth medium was replaced with 100 μl serum -free, phenol red -free DMEM/F-12 medium (Invitrogen). All compounds from the PW - and the ZL-series, including PW164 and […] medium and then cells were incubated for two hours. The bioluminescence reaction was initiated by injection of 100 μl of D -luciferin substrate (1.5 mg/ml dissolved in PBS) using a Synergy H4 multimode microplate reader (BioTek). Luminescence readings were initiated after 3 s of mild plate shaking and performed at 2 min intervals […] °C. Raw signal intensity was computed by averaging peak luminescence plus two adjacent time points. Normalized signal intensity was expressed as the percentage of mean signal intensity relative to per plate control […] Surface plasmon resonance (SPR) All SPR experiments were performed on a Biacore T100 (GE Healthcare). […] ([…]) , which was previously described (14) or purified FGF13 were immobilized on CM5 sensor chip using 10 mM sodium acetate buffer (pH 5.5) with Amine Coupling Kit (GE […] to the control channel of the chip. For each compound, stock solution (50 mM) was serially diluted from 300 to 1 […] Samples were injected over the chip for 60 s followed by […] page 7: […] The nonspecific responses (buffer alone) were extracted for injected compound or peptide from experimental sensograms before data analysis. Data was analyzed for kinetic properties using Biacore T100 Analysis software. Visually inspected sensograms/traces were used to calculate the equilibrium constant (KD): i. the maximal responses were plotted against the treated concentrations, and the steady state KD was calculated from the fitted saturation binding curve; ii. a kinetic analysis for all ligand/analyte interaction was obtained by using Langmuir 1:1 interaction fitting model (KD = koff/kon). RNA isolation from DRG Mouse surgical and experimental procedures employed were approved by the University of Texas Medical Branch Institutional Animal Care and Use Committee. Animals were sacrificed using carbon dioxide before confirmation of death, rather than cervical dislocation. Mouse lumbar dorsal root ganglia (L4 and L5) were dissected and collected in Buffer RLT Plus (RNeasy Plus Mini Kit, QIAGEN, cat. nos. 74136). RNA was isolated according to the protocol reported in the same kit. Quantitative reverse transcriptase PCR (qRT-PCR) RNA samples for real-time analysis were then quantified using a Nanodrop Spectrophotometer (Thermo Scientific). cDNA was generated from total RNA (1 μg) in a 20 μl reaction using the reagents of iScriptTM Reverse Transcription Supermix for RT-qPCR (Bio-Rad Laboratories, cat. 1708840). FGF13 gene expression was determined by qRT-PCR. qRT-PCR was performed in duplicate for each sample using 4 μl of cDNA in a total volume of 20 μl using the iTaq Universal SYBR Green Supermix (Bio-Rad, Hercules, CA, United States). All RT-PCR assays were run using the BioRad CFX384 Touch Real-Time PCR System (Bio-Rad, Hercules, CA, United States) with the following conditions: 95°[…]) repeated by 40 cycles and 4°C. […] The internal reference gene for SYBR Green assays was 18[NT] and 5'-CTC

[2] = tested on: C57BL/6 mice; experiment: Mechanical sensitivity (von Frey, LVF/HVF) after intraplantar injection, mice without capsaicin; format: in vivo, mouse; design: key to LVF Mean / HVF Mean: % withdrawals from 10 consecutive von Frey stimulations; conditions: for HVF Mean / LVF Mean: without capsaicin
Experimental: Experiments were performed on 6- to 12-week-old male C57BL/6 mice (The Jackson Laboratory, Bar Harbor, ME) housed in the AAALAC-accredited facility at the University of Texas Medical Branch. Mice were group-housed with up to 5 mice per cage on a 12-to-12-hour light–dark cycle and had access to water and food ad libitum. All protocols were approved by the Institutional Animal Care and Use Committee (IACUC) at the University of Texas Medical Branch and in accordance with the National Institutes of Health (NIH) guidelines.
PW164 and ZL192 were dissolved in DMSO and saline in a ratio of 1:10. 0.1% capsaicin (10% ethanol, 10% Tween-20 in saline; Sigma-Aldrich). All the compounds were injected at the center of the hind paw. The control group received a DMSO-saline mixture. […]
Assessment of mechanical sensitivity
Mechanical sensitivity was assessed using von Frey filaments (VFF 0.1g and 1.0 g force) in mice that were either naïve or received intraplantar (i.p.) injection of capsaicin. VFFs were applied at the injection site (capsaicin or drug unilateral intraderma l injection at the center of the hind paw using a 30 -G needle). VFF of 1.0 g force, which evokes a 40–60% withdrawal response in the naïve condition, was used to detect hyperalgesia, and VFF of 0.1 g […]
mechanical sensitivity was expressed as % withdrawals from 10 consecutive stimulations. […]

COC(=O)[C@@H](NC(=O)[C@H](CCC(=O)OC(C)(C)C)NC(=O)[C@H](CC(C)C)NC(=O)[C@@H]1CCCN1C(=O)OCc1ccccc1)C(C)C [PW164] (Cbz-PLE(OtBu)V-OMe)
Kd [1]: 21 ± 3 µM | HVF Mean ([2]; PW164 0.07mg/mL, Time (h) 0): 50 | LVF Mean ([2]; PW164 0.07mg/mL, Time (h) 0): 0 | HVF Mean ([2]; PW164 0.07mg/mL, Time (h) 0.5): 50 | LVF Mean ([2]; PW164 0.07mg/mL, Time (h) 0.5): 0 | HVF Mean ([2]; PW164 0.07mg/mL, Time (h) 1): 55 | LVF Mean ([2]; PW164 0.07mg/mL, Time (h) 1): 0 | HVF Mean ([2]; PW164 0.07mg/mL, Time (h) 1.5): 50 | LVF Mean ([2]; PW164 0.07mg/mL, Time (h) 1.5): 0 | HVF Mean ([2]; PW164 0.07mg/mL, Time (h) 2): 50 | LVF Mean ([2]; PW164 0.07mg/mL, Time (h) 2): 0 | HVF Mean ([2]; PW164 0.21 mg/mL, Time (h) 0): 53.3333 | LVF Mean ([2]; PW164 0.21 mg/mL, Time (h) 0): 0 | HVF Mean ([2]; PW164 0.21 mg/mL, Time (h) 0.5): 50 | LVF Mean ([2]; PW164 0.21 mg/mL, Time (h) 0.5): 0 | HVF Mean ([2]; PW164 0.21 mg/mL, Time (h) 1): 50 | LVF Mean ([2]; PW164 0.21 mg/mL, Time (h) 1): 0 | HVF Mean ([2]; PW164 0.21 mg/mL, Time (h) 1.5): 53.3333 | LVF Mean ([2]; PW164 0.21 mg/mL, Time (h) 1.5): 0 | HVF Mean ([2]; PW164 0.21 mg/mL, Time (h) 2): 50 | LVF Mean ([2]; PW164 0.21 mg/mL, Time (h) 2): 3.333 | HVF Mean ([2]; PW164 0.7 mg/mL, Time (h) 0): 53.3333 | LVF Mean ([2]; PW164 0.7 mg/mL, Time (h) 0): 0 | HVF Mean ([2]; PW164 0.7 mg/mL, Time (h) 0.5): 50 | LVF Mean ([2]; PW164 0.7 mg/mL, Time (h) 0.5): 0 | HVF Mean ([2]; PW164 0.7 mg/mL, Time (h) 1): 56.6667 | LVF Mean ([2]; PW164 0.7 mg/mL, Time (h) 1): 0 | HVF Mean ([2]; PW164 0.7 mg/mL, Time (h) 1.5): 53.3333 | LVF Mean ([2]; PW164 0.7 mg/mL, Time (h) 1.5): 3.333 | HVF Mean ([2]; PW164 0.7 mg/mL, Time (h) 2): 56.6667 | LVF Mean ([2]; PW164 0.7 mg/mL, Time (h) 2): 0 | paw withdrawal to LVF/HVF stimulation, normal sensitivity ([2]; WT mice, i.pl. 5 μL, doses tested): did not affect paw withdrawal

CC(=O)N[C@@H](Cc1ccccc1)C(=O)N[C@@H](CC(C)C)C(=O)N1CCC[C@H]1C(=O)N[C@@H](CCCCN)C(=O)Nc1ccccc1 [ZL192] (Ac-FLPK-NHPh)
Kd [1]: 4 µM | Figure 1C Right panel, Mean response versus concentration ([1]; concentration 3.12e-6): 10.5172 | Figure 1C Right panel, Mean response versus concentration ([1]; concentration 6.25e-6): 11.7391 | Figure 1C Right panel, Mean response versus concentration ([1]; concentration 1.25e-5): 12.5757 | Figure 1C Right panel, Mean response versus concentration ([1]; concentration 2.5e-5): 14.2936 | Figure 1C Right panel, Mean response versus concentration ([1]; concentration 5e-5): 15.3045 | Figure 1C Right panel, Mean response versus concentration ([1]; concentration 7.5e-5): 16.2485 | Figure 1C Right panel, Mean response versus concentration ([1]; concentration 0.0001): 18.1479 | Figure 1C Right panel, Mean response versus concentration ([1]; concentration 0.00015): 20.366 | Figure 1C Right panel, Mean response versus concentration ([1]; concentration 0.0002): 22.3345 | Figure 1C Right panel, Mean response versus concentration ([1]; concentration 0.0003): 22.6291 | Figure 1C Right panel, Mean response versus concentration ([1]; concentration 7.80E-07): 7.018 | mechanical hypersensitivity in AAV2-shFGF13 mice ([2]; ZL192 0.18 mg/mL, i.pl.): absent | mechanical sensitivity in AAV2-shCTRL mice ([2]; ZL192 0.18 mg/mL, i.pl.): caused mechanical and thermal hypersensitivity | duration of increased mechanical response ([2]; naive WT mice, ZL192 i.pl. 0.06 or 0.18 mg/mL): up to 2 hours | response to LVF and HVF stimulation ([2]; naive WT mice, ZL192 i.pl. 5 μL, 0.06 or 0.18 mg/mL, vs vehicle): increased the response
